The conditions of data set [1]: continuous administration; ref Small et al., 2015; Nurmohamed et al., 2022; cited from earlier work.
The conditions of data set [2]: cited from earlier work.
On the set-up of data set [3]: method as in Small et al., 2015. Particulars: ref Small et al., 2015; cited from earlier work.
A further data set deals with CETP in human plasma. Also noted: method as in Cao et al., 2011. Particulars: ref Cao et al., 2011, read-out: IC50 of CETP inhibition; cited from earlier work.
Data set [4] in a line: Rapid equilibrium dialysis, plasma on both sides of the membrane. The data set is classed as in vitro ADME. Conditions: after 24 h, preliminary data. The source says: One last factor we considered in this study was the mechanism by which evacetrapib is transported into brain tissue. To that effect, toxicokinetic parameters were derived from the blood and brain time courses, which indicate that the drug possibly requires some sort of transporter to reach peripheral compartments, such as the brain, and to clear from brain tissue. […] A possible explanation could be that evacetrapib enters the brain faster than it is cleared out of it, leading to a buildup in brain tissue. […] To determine which mechanisms are involved in evacetrapib distribution to the brain, a semi-PBPK model was developed (parameter values are in Table 1; Figure 5). To this end, we first aimed to determine the brain: plasma partition coefficient of evacetrapib using rapid equilibrium dialysis. […] This may be in line with our in vivo observations considering that only a small fraction of evacetrapib crossed the blood–brain barrier. However, the slow diffusion in our in vitro model is incongruent with the concentrations of evacetrapib found in the brain 2.2 h following intravenous injections. Thus, the implication of transporters cannot be excluded.
Background: Equilibrium dialysis compares concentrations on both sides of a semipermeable membrane.

Data set [5] is described as follows: Semi-PBPK three-compartment model of distribution to the brain. Set-up: species or system mice. As for the experimental part:
A semi-physiological-based pharmacokinetic (PBPK) model was developed to obtain more mechanistic information on the distribution of evacetrapib in the brain. First, a two-compartmental model (i.e., a plasma and a peripheral compartment) with a first-order elimination rate was fitted to describe the kinetics of the compound in plasma ([Mukherjee, 2022]) (Figure 1). Second, a third compartment was added and connected to the plasma compartment (Figure 1). The brain compartment was subdivided into vascular and tissue sub-compartments, with mass balance differential equations describing a distribution in the tissue that can be limited by diffusion as follows ([Shen, 2010]): dABrT/dt=PA∙CBrP−PA∙CBrT/PBr, (9) CBrT=ABrT/VBr1−VBrVF, (10) dABrP/dt=QBrCp−CBrP−PA∙CBrP−PA∙CBrT/PBr, (11) CBrP=ABrP/VBr∙VBrVF∙PF, (12) CBr=ABrT+ABrP/VBr, (13) where ABrT is the amount in the brain tissue, ABrP is the amount in the brain plasma, CBrP the concentration in the brain plasma, CBrT the concentration in the brain tissue subcompartment, CBr the concentration in the brain, Cp the plasma concentration, PA the permeability area product, PBr the brain-to-plasma partition coefficient, PF the plasma fraction of the blood, VBrVF the vascular volume fraction of the brain, VBr the volume of the brain, and QBr plasma flow to the brain.
Several scenarios were tested using this semi-PBPK model and brain concentration data to determine the mechanisms that best explain accumulation in the brain: 1) no permeability (i.e., PA = 0 L/h); 2) a perfusion-limited distribution (PA > 1,000,000 L/h) using the predicted PBr ([Poulin and Haddad, 2011]); 3) a perfusion-limited distribution with a low PBr (fitted); 4) a diffusion-limited distribution (fitted PA) using the predicted PBr; and 5) diffusion-limited distribution (fitted PA) and low PBr (fitted).
We used a semi-physiological three-compartment model to simulate the in vivo data (Figure 1). The parameters for the plasma and peripheral compartments were fitted to the plasma concentration at 40 mg/kg BW (Table 1; Figure 5B) ([Brown et al., 1997]; [Peyret et al., 2010]). Then, four scenarios were simulated assuming the following: a) perfusion-limited distribution with the predicted brain-to-plasma partition coefficient (PBr), b) as in a) with a low PBr, c) diffusion-limited distribution with the predicted PBr, and d) as in c) with low PBr, against the brain concentration data corrected for residual blood as explained in the Methods section. When assuming perfusion-limited distribution, the model could not simulate the observed data (Figure 5A), even when we adjusted for PBr. […] Thus, we propose that evacetrapib enters the brain in a diffusion-limited manner, which could include some form of facilitated transport.

Setting [6] is: two-compartment model, fitted to plasma concentration at 40 mg/kg BW.

What is called IC50 is the concentration needed to halve the response being measured. As for `Cc1cc(C)c2c(c1)[C@@H](N(Cc1cc(C(F)(F)F)cc(C(F)(F)F)c1)c1nnn(C)n1)CCCN2C[C@H]1CC[C@H](C(=O)O)CC1` [evacetrapib], the “Accumulation in adipose tissues” value in data set [1] is on record as “does not accumulate in adipose tissues”. The Tolerated dose result in data set [2] (rat, in vivo, po) is recorded as “up to 600 mg/kg BW/day”. The Oral absorption fraction in data set [2] (rats, oral gavage, ref Takubo et al., 2014, Simic et al., 2017) is 25%. Further, in data set [3], the “logP (octanol to water partition coefficient)” value is 7.56. Besides, in the data set on CETP in human plasma, the half-inhibitory concentration (IC50) is 36 nM. In data set [4], the “Fraction diffused across the dialysis membrane” value turned out to be 2%. Besides, the “Permeability area product (PA)” value in data set [5] (fitted, diffusion-limited distribution) stood at 1.1e-05 L/h. Moreover, in data set [5] (male, hCETPtg (C57BL/6J background), mouse, intravenous, 40 mg/kg BW, fitted to brain concentrations corrected for residual blood, read-out: Brain:plasma partition coefficient (PBr)), the Kp was determined as 0.06. Besides, the k el in data set [5] (male, hCETPtg (C57BL/6J background), mouse, intravenous, two-compartment model, fitted to plasma concentration at 40 mg/kg BW, read-out: Elimination constant (Kel) (converted)) is 0.000386 s⁻¹. Moreover, in data set [5] (setting [6]), the “Apparent plasma volume (Vplasma)” value came out at 0.01 L, the “Peripheral to plasma transfer constant (K21)” value turned out to be 1.21 h⁻¹ and the “Plasma to peripheral transfer constant (K12)” value was 2.4 h⁻¹.
